Test results taken from patent publication US20220017433A1 (UNIVERSITÄT ZÜRICH, priority 2018, published 2022).

Assay: Water solubility of the chelating compounds
Format: physicochemical
Conditions: aqueous stock solution, pH lowered with HCl

In the case of Desferrioxamine-p-arylazide [DFO-ArN3], the “pH below which the compound starts to precipitate slowly” value is reported as ~9.
